Measured values published in BigSolDB 2.1.

CN1CCN(C(=O)O[C@H]2c3nccnc3C(=O)N2c2ccc(Cl)cn2)CC1
solubility (mole fraction)
Settings | 288.15 K | 293.15 K | 298.15 K | 303.15 K | 308.15 K | 313.15 K | 318.15 K | 323.15 K | 328.15 K
in acetone | 0.0013 | 0.00153 | 0.0019 | 0.00229 | 0.00269 | 0.00318 | 0.0037 | – | –
in ethanol | 0.00023 | 0.000282 | 0.00036 | 0.000431 | 0.000526 | 0.000672 | 0.000851 | 0.000996 | 0.0012
in isopropyl acetate | 0.000682 | 0.000796 | 0.000964 | 0.0012 | 0.0014 | 0.00163 | 0.00182 | 0.00203 | 0.00226
in methyl acetate | 0.00187 | 0.00217 | 0.0025 | 0.00303 | 0.00356 | 0.00414 | 0.00484 | – | –
in n-propanol | 0.00013 | 0.000172 | 0.000215 | 0.000292 | 0.000382 | 0.000493 | 0.00059 | 0.00079 | 0.00101
in n-propyl acetate | 0.000851 | 0.00102 | 0.00124 | 0.00153 | 0.00183 | 0.00208 | 0.00239 | 0.0027 | 0.00303
